# From ChEMBL document CHEMBL2057066, “Heteroaromatic Moieties in the Sphingosine Backbone of α-Galactosylceramides for Noncovalent Interactions with CD1d” (ACS Med Chem Lett, 2012)
# Active and inactive are the calls of the source. The calls are words filed in the database; no cut-off is given here.
# Experiments:
# [1] = tested on: iNKT; experiment: Immunomodulatory activity in mouse hepatic mononuclear cells containing iNKT cells assessed as IL4 release after 72 hrs by ELISA; format: functional, cell-based
# [2] = tested on: iNKT; experiment: Immunomodulatory activity in mouse hepatic mononuclear cells containing iNKT cells assessed as IFNgamma release after 72 hrs by ELISA; format: functional, cell-based
# [3] = tested on: Mus musculus; experiment: Immunomodulatory activity in C57BL/6 mouse serum assessed as IL4 release at 2 ug/ml, iv after 2 to 16 hrs by ELISa; format: functional, organism-based
# [4] = tested on: iNKT; experiment: Immunomodulatory activity in mouse hepatic mononuclear cells containing iNKT cells assessed as IFNgamma release at 25 nM after 72 hrs by ELISA; format: functional, cell-based
# [5] = tested on: iNKT; experiment: Immunomodulatory activity in mouse hepatic mononuclear cells containing iNKT cells assessed as IL4 release at 25 nM after 72 hrs by ELISA; format: functional, cell-based
Compound,Activity [1],Activity [2],Activity [3],Activity [4],Activity [5]
CCCCCCCCCCCCCCCCCCCCCCCCCC(=O)N[C@@H](CO[C@H]1O[C@H](CO)[C@H](O)[C@H](O)[C@H]1O)[C@H](O)[C@H](O)c1cnn(Cc2ccc(CCCCCC)cc2)c1,Dose-dependent effect,Dose-dependent effect,Active,–,–
CCCCCCCCCCCCCCCCCCCCCCCCCC(=O)N[C@@H](CO[C@H]1O[C@H](CO)[C@H](O)[C@H](O)[C@H]1O)[C@H](O)[C@H](O)CCCCCCCCCCCCCC,–,–,–,Active,Active
